For 29 molecules, EC50 results are on record in patent US20150045328A1, “DISUBSTITUTED ARYL OXY DERIVATIVES AS SPHINGOSINE-1 PHOSPHATE RECEPTORS MODULATORS” (Allergan, Inc., priority 2013, published 2015).

Each structure is given as a SMILES string.

For this experiment, the target named is T1, human S1P1 receptor (Homo sapiens, UniProt P21453).
T1 construct: expressed in transfected cells; membranes used
The experiment in a line: GTP γ35S binding assay for S1P1 activity. Conditions: activity potency, S1P1 receptor from GTP γ35S binding; membranes of cells stably expressing the S1P1 receptor. In kind it is biochemical. Here is the method:
Compounds were synthesized and tested for S1P1 activity using the GTP γ^35S binding assay. These compounds may be assessed for their ability to activate or block activation of the human S1P1 receptor in cells stably expressing the S1P1 receptor.
GTP γ^35S binding was measured in the medium containing (mM) HEPES 25, pH 7.4, MgCl2 10, NaCl 100, dithiothreitol 0.5, digitonin 0.003%, 0.2 nM GTP γ^35S, and 5 μg membrane protein in a volume of 150 μl. Test compounds were included in the concentration range from 0.08 to 5,000 nM unless indicated otherwise. Membranes were incubated with 100 μM 5′-adenylylimidodiphosphate for 30 min, and subsequently with 10 μM GDP for 10 min on ice. Drug solutions and membrane were mixed, and then reactions were initiated by adding GTP γ^35S and continued for 30 min at 25° C. Reaction mixtures were filtered over Whatman GF/B filters under vacuum, and washed three times with 3 mL of ice-cold buffer (HEPES 25, pH7.4, MgCl2 10 and NaCl 100). Filters were dried and mixed with scintillant, and counted for ^35S activity using a β-counter. Agonist-induced GTP γ^35S binding was obtained by subtracting that in the absence of agonist. Binding data were analyzed using a non-linear regression method. In case of antagonist assay, the reaction mixture contained 10 nM […] in the presence of test antagonist at concentrations ranging from 0.08 to 5000 nM.
For orientation: GTPγS resists hydrolysis and so accumulates on activated G proteins.

T1 sequence (P21453 whole entry): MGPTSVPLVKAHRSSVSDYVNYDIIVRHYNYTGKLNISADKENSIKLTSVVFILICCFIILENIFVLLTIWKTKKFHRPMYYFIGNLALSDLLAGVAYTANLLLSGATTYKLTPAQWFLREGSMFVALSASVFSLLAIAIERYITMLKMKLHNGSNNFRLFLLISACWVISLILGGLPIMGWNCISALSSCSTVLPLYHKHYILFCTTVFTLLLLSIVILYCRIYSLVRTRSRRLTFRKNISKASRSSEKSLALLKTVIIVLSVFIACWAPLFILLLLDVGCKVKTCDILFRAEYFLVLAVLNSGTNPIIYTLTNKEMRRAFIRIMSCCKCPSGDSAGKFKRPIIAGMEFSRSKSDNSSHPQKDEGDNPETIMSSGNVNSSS

As usually defined, the EC50 is the concentration at which the effect is half-maximal. A higher EC50 goes with a less potent agent. On to `CCC(CCCOc1ccc(CNCCCP(=O)(O)O)cc1)Cc1ccc(C)c(C)c1` (centres unmarked) [Compound 6, {3-[(4-{[4-(3,4-Dimethylbenzyl)hexyl]oxy}benzyl)amino]propyl}phosphonic acid], for which the EC50 amounted to 21.4 nM.

As to `CCCC(CCCOc1c(C)cc(CNCCC(=O)O)cc1C)Cc1ccc(C)c(C)c1` (centres unmarked) [Compound 30, 3-[(4-{[4-(3,4-Dimethylbenzyl)heptyl]oxy}-3,5-dimethylbenzyl)amino]propanoic acid], a half-maximal response (EC50) required 27.1 nM.

Molecule `CCCC(CCCOc1ccc(CNCCCP(=O)(O)O)cc1Cl)Cc1ccc(C)c(C)c1` (centres unmarked) [Compound 27, {3-[(3-chloro-4-{[4-(3,4-dimethylbenzyl)heptyl]oxy}benzyl)amino]propyl}phosphonic acid] yielded an EC50 of 10.9 nM.

`CCCC(CCCOc1ccc(CNCCCP(=O)(O)O)cc1)Cc1ccc(C)c(C)c1` (centres unmarked) [Compound 4, {3-[(4-{[4-(3,4-Dimethylbenzyl)heptyl]oxy}benzyl)amino]propyl}phosphonic acid] registered a 50% effective concentration (EC50) of 120 nM.

For `CCCC(CCCOc1ccc(CNCCCP(=O)(O)O)cc1C)Cc1ccc(C)c(C)c1` (centres unmarked) [Compound 31, {3-[(4-{[4-(3,4-Dimethylbenzyl)heptyl]oxy}-3-methylbenzyl)amino]propyl}phosphonic acid], a half-maximal response (EC50) required 7.89 nM.

Take `CCCC(CCCOc1c(C)cc(CNCCCP(=O)(O)O)cc1C)Cc1ccc(C)c(C)c1` (centres unmarked) [Compound 29, {3-[(4-{[4-(3,4-Dimethylbenzyl)heptyl]oxy}-3,5-dimethylbenzyl)amino]propyl}phosphonic acid]: it took 328 nM to reach a half-maximal effect (EC50).

Regarding `CCCCC(CCCOc1ccc(CNCCC(=O)O)cc1F)Cc1ccc(C)c(C)c1` (centres unmarked) [Compound 22, 3-[(4-{[4-(3,4-Dimethylbenzyl)octyl]oxy}-3-fluorobenzyl)amino]propanoic acid], the response was half-maximal at 15.7 nM (EC50).

On to `CCCCCC(CCCOc1ccc(CNCCC(=O)O)cc1)Cc1ccc(C)c(C)c1` (centres unmarked) [Compound 10, 3-[(4-{[4-(3,4-Dimethylbenzyl)nonyl]oxy}benzyl)amino]propanoic acid], for which a half-maximal effect (EC50) was put at 7.46 nM.

Molecule `CCC(CCCOc1ccc(CNCCC(=O)O)cc1)Cc1ccc(C)c(C)c1` (centres unmarked) [Compound 7, 3-[(4-{[4-(3,4-Dimethylbenzyl)hexyl]oxy}benzyl)amino]propanoic acid] registered an EC50 of 11.4 nM.

Molecule `CCCC(CCCOc1ccc(CNCCC(=O)O)cc1)Cc1ccc(C)c(C)c1` (centres unmarked) [Compound 5, 3-[(4-{[4-(3,4-Dimethylbenzyl)heptyl]oxy}benzyl)amino]propanoic acid] gave an EC50 of 4.68 nM.

Molecule `CCCC(CCCOc1ccc(CNCCC(=O)O)cc1Cl)Cc1ccc(C)c(C)c1` (centres unmarked) [Compound 28, 3-[(3-Chloro-4-{[4-(3,4-dimethylbenzyl)heptyl]oxy}benzyl)amino]propanoic acid] displayed a 50% effective concentration (EC50) of 54 nM.

Molecule `CCCCC(CCCOc1c(F)cc(CNCCCP(=O)(O)O)cc1OC)Cc1ccc(C)c(C)c1` (centres unmarked) [Compound 19, {3-[(4-{[4-(3,4-dimethylbenzyl)octyl]oxy}-3-fluoro-5-methoxybenzyl)amino]propyl}phosphonic acid] gave a half-maximal effective concentration (EC50) of 0.33 nM.

`CCCCCC(CCCOc1ccc(CNCCCP(=O)(O)O)cc1Cl)Cc1ccc(C)c(C)c1` (centres unmarked) [Compound 25, {3-[(3-Chloro-4-{[4-(3,4-dimethylbenzyl)nonyl]oxy}benzyl)amino]propyl}phosphonic acid] displayed a concentration giving a half-maximal response (EC50) of 4.83 nM.

For `CCCCC(CCCOc1c(C)cc(CNCCC(=O)O)cc1C)Cc1ccc(C)c(C)c1` (centres unmarked) [Compound 12, 3-[(4-{[4-(3,4-dimethylbenzyl)octyl]oxy}-3,5-dimethylbenzyl)amino]propanoic acid], the concentration giving a half-maximal response (EC50) was determined as 9.84 nM.

In turn, `CCCCC(CCCOc1c(C)cc(CNCCCP(=O)(O)O)cc1C)Cc1ccc(C)c(C)c1` (centres unmarked) [Compound 11, {3-[(4-{[4-(3,4-Dimethylbenzyl)octyl]oxy}-3,5-dimethylbenzyl)amino]propyl}phosphonic acid] displayed a 50% effective concentration (EC50) of 18.9 nM.

For the molecule `CCCCC(CCCOc1ccc(CNCCCP(=O)(O)O)cc1F)Cc1ccc(C)c(C)c1` (centres unmarked) [Compound 21, {3-[(4-{[4-(3,4-Dimethylbenzyl)octyl]oxy}-3-fluorobenzyl)amino]propyl}phosphonic acid], the 50% effective concentration (EC50) was found to be 2.35 nM.

Molecule `CCCCC(CCCOc1ccc(CNCCCP(=O)(O)O)cc1)Cc1ccc(C)c(C)c1` (centres unmarked) [Compound 2, {3-[(4-{[4-(3,4-Dimethylbenzyl)octyl]oxy}benzyl)amino]propyl}phosphonic acid] had a concentration for a half-maximal effect (EC50) of 12.9 nM.

On to `CCCCC(CCCOc1ccc(CNCCCP(=O)(O)O)cc1Br)Cc1ccc(C)c(C)c1` (centres unmarked) [Compound 15, {3-[(3-Bromo-4-{[4-(3,4-dimethylbenzyl)octyl]oxy}benzyl)amino]propyl}phosphonic acid], for which the EC50 came out at 2.29 nM.

Regarding `CCCCC(CCCOc1ccc(CNCCC(=O)O)cc1)Cc1ccc(C)c(C)c1` (centres unmarked) [Compound 3, 3-[(4-{[4-(3,4-Dimethylbenzyl)octyl]oxy}benzyl)amino]propanoic acid], the EC50 came to 5 nM.

On to `CCCCC(CCCOc1ccc(CNCCCP(=O)(O)O)cc1C)Cc1ccc(C)c(C)c1` (centres unmarked) [Compound 13, {3-[(4-{[4-(3,4-Dimethylbenzyl)octyl]oxy}-3-methylbenzyl)amino]propyl}phosphonic acid], for which the EC50 was determined as 6.54 nM.

`CCCCC(CCCOc1ccc(CNCCC(=O)O)cc1C)Cc1ccc(C)c(C)c1` (centres unmarked) [Compound 14, 3-[(4-{[4-(3,4-Dimethylbenzyl)octyl]oxy}-3-methylbenzyl)amino]propanoic acid] returned an EC50 of 6.02 nM.

With `CCCCCC(CCCOc1ccc(CNCCCP(=O)(O)O)cc1)Cc1ccc(C)c(C)c1` (centres unmarked) [Compound 1, {3-[(4-{[4-(3,4-Dimethylbenzyl)nonyl]oxy}benzyl)amino]propyl}phosphonic acid], the EC50 turned out to be 5.18 nM.

Regarding `CCCCC(CCCOc1ccc(CNCCC(=O)O)cc1Cl)Cc1ccc(C)c(C)c1` (centres unmarked) [Compound 18, 3-[(3-Chloro-4-{[4-(3,4-dimethylbenzyl)octyl]oxy}benzyl)amino]propanoic acid], the EC50 turned out to be 1.25 nM.

`CCCCC(CCCOc1c(F)cc(CNCCC(=O)O)cc1OC)Cc1ccc(C)c(C)c1` (centres unmarked) [Compound 20, 3-[(4-{[4-(3,4-Dimethylbenzyl)octyl]oxy}-3-fluoro-5-methoxybenzyl)amino]propanoic acid] had an EC50 of 2.7 nM.

`CCCCC(CCCOc1ccc(CNCCC(=O)O)cc1Br)Cc1ccc(C)c(C)c1` (centres unmarked) [Compound 16, 3-[(3-Bromo-4-{[4-(3,4-dimethylbenzyl)octyl]oxy}benzyl)amino]propanoic acid] registered an EC50 of 4.19 nM.

Regarding `CCCCC(CCCOc1ccc(CNCCCP(=O)(O)O)cc1Cl)Cc1ccc(C)c(C)c1` (centres unmarked) [Compound 17, {3-[(3-Chloro-4-{[4-(3,4-dimethylbenzyl)octyl]oxy}benzyl)amino]propyl}phosphonic acid], a half-maximal effect (EC50) was put at 1.34 nM.

For the molecule `CCCC(CCCOc1ccc(CNCCC(=O)O)cc1C)Cc1ccc(C)c(C)c1` (centres unmarked) [Compound 32, 3-[(4-{[4-(3,4-Dimethylbenzyl)heptyl]oxy}-3-methylbenzyl)amino]propanoic acid], the half-maximal effective concentration (EC50) turned out to be 35.2 nM.

`CCCCCC(CCCOc1ccc(CNCCC(=O)O)cc1Cl)Cc1ccc(C)c(C)c1` (centres unmarked) [Compound 26, 3-[(3-Chloro-4-{[4-(3,4-dimethylbenzyl)nonyl]oxy}benzyl)amino]propanoic acid] showed an EC50 of 11.8 nM.

As for `CCCCCC(CCCOc1c(C)cc(CNCCCP(=O)(O)O)cc1C)Cc1ccc(C)c(C)c1` (centres unmarked) [Compound 23, {3-[(4-{[4-(3,4-Dimethylbenzyl)nonyl]oxy}-3,5-dimethylbenzyl)amino]propyl}phosphonic acid], the midpoint of the response, the EC50, lay at 11.9 nM.
